In patent US11130780B2, “Inhibitors of growth factor activation enzymes” (Washington University, priority 2015, dated 2021):
Where two headings read alike, the source gives them in different places.

Tests used:
Format in all cases: biochemical
thrombin = thrombin (Homo sapiens, UniProt P00734); assay: Chromogenic kinetic enzyme assay of thrombin; conditions: Table 4.1; read-out: Thrombin Ki
Summary of the method: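 Recombinant human thrombin (0.15 nM) or Factor Xa (0.35 nM) was mixed with 11-point inhibitor dilutions (0–20 μM, 2% DMSO) in TNC buffer, pH 8. Kinetic absorbance at 405 nm gave velocities. IC50 came from a four-parameter fit and Ki from Cheng–Prusoff.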

matriptase = molecular target: T1, matriptase (Homo sapiens, UniProt Q9Y5Y6); assay: Fluorescent kinetic enzyme inhibitor assay of matriptase; conditions: for IC50: Table 4.1; for Ki: Table 4.2, Boc-QAR-AMC substrate
T1 construct: Charles Craik, UCSF (obtained from another laboratory)
T1 sequence (Q9Y5Y6 615-855 limits assumed): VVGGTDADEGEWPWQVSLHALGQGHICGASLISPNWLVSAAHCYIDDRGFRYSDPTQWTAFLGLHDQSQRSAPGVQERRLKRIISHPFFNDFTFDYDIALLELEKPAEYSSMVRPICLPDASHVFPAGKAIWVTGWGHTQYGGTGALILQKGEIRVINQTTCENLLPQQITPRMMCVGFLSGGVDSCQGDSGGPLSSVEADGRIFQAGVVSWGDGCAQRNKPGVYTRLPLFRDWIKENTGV
Summary of the method: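 Fluorescence (ex 380/em 460 nm) followed kinetically at room temperature; IC50 from four-parameter fit of mean velocity versus concentration, averaged over three experiments.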

Factor Xa = Factor Xa (Homo sapiens, UniProt P00742); assay: Chromogenic kinetic enzyme assay of Factor Xa; conditions: Table 4.1; read-out: Factor Xa Ki
Chain of Factor Xa (P00742 235-488 limits assumed): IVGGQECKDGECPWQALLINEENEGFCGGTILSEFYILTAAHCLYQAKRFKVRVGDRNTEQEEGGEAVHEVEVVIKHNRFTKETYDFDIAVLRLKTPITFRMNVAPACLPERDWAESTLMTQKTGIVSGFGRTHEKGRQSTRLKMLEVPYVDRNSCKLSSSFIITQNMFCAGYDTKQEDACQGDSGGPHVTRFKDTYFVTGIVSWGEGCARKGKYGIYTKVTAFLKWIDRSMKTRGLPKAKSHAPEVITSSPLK
Chain of Factor Xa (P00742 41-179 partner limits assumed): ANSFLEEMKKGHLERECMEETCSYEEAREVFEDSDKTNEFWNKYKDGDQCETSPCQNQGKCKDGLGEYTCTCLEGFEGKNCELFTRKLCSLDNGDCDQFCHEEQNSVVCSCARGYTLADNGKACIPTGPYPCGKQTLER
Procedure: Inhibitors (11-pt serial dilutions, 0-20 μM final concentration) were serially diluted in DMSO (2% DMSO final concentration) and then mixed with recombinant thrombin (0.15 nM final concentration) or Factor Xa (0.35 nM final concentration) in TNC buffer (25 mM Tris, 150 mM NaCl, 5 mM CaCl2, 0.01% TRITON X-100, pH 8) using clear 384 well plates. […] Changes in absorbance at 405 nm were measured over time in a Biotek Synergy 2 plate (Winnoski, Vt.). Using GraphPad Prism version 6.04 software program, (GraphPad Software, San Diego, Calif., www.graphpad.com), a four parameter curve fit was used to determine the inhibitor IC50s from a plot of the mean reaction velocity versus the inhibitor concentration. Ki values were calculated from the IC50 values using the Cheng and Prusoff equation (Ki=IC50/(1+[S]/Km).

HGFA = molecular target: T2, HGFA (Homo sapiens, UniProt Q04756); assay: Fluorescent kinetic enzyme inhibitor assay of HGFA
T2 construct: His6 tag (N); seven amino acid spacer and seven amino acid TEV cleavage site (N); Honey Bee melittin signal peptide (N); made in house; host or cells: High 5 insect cells (baculovirus; virus raised in Sf9)
T2 sequence (Q04756 373-655): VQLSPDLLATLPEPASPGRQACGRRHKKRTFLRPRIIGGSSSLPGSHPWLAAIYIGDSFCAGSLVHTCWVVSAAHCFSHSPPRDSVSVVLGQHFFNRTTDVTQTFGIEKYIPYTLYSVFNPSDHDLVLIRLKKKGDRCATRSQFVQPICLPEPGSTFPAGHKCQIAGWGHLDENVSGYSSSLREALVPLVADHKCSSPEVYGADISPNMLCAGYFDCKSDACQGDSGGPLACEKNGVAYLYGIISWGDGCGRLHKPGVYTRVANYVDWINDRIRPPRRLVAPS
Summary of the method: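 Recombinant His-tagged HGFA residues 373-655 from insect cells, with substrate at Km. Inhibitors in 11-point dilutions, 0-20 μM final, 2% DMSO, fluorescence (ex 380/em 460 nm) followed over time at room temperature. IC50 from four-parameter fit of mean velocity, average of three experiments.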

[1] = Table 4.2, Boc-QLR-AMC substrate, read-out: HGFA Ki

| Structure (SMILES) | Ki (thrombin) | fold more potent for matriptase versus HGFA (matriptase) | IC50 (matriptase) | Ki (matriptase) | Ki (Factor Xa) | Ki (HGFA; [1]) | Ki (HGFA; read-out: Ki for HGFA) | selectivity among HGFA, matriptase and hepsin (HGFA) |
| --- | --- | --- | --- | --- | --- | --- | --- | --- |
| CC(=O)N[C@@H](CCCCN)C(=O)N[C@@H](CCC(N)=O)C(=O)N[C@@H](CC(C)C)C(=O)N[C@@H](CCCNC(=N)N)C(=O)c1nccs1 [Compound 5, Ac-KQLR(SEQ ID NO: 1)-kt] | > 20000 nM | 50 fold | 5 nM | 1.6 nM | 170 nM | 70 nM | 53 nM | – |
| CC(=O)N[C@@H](CCCCN)C(=O)N[C@@H](CCC(N)=O)C(=O)N[C@@H](Cc1ccccc1)C(=O)N[C@@H](CCCNC(=N)N)C(=O)c1nccs1 [Compound 5c, Ac-KQFR(SEQ ID NO: 4)-kt] | > 20000 nM | – | – | 0.69 nM | 78.8 nM | 58 nM | – | – |
| CC(=O)N[C@@H](CCCNC(=N)N)C(=O)N[C@@H](CCC(N)=O)C(=O)N[C@@H](CC(C)C)C(=O)N[C@@H](CCCNC(=N)N)C(=O)c1nccs1 [Compound 5e, Ac-RQLR(SEQ ID NO: 6)-kt] | > 20000 nM | – | 1 nM | – | 8.1 nM | 60 nM | – | – |
| CC(=O)N[C@@H](CCCCN)C(=O)N[C@@H](CCCNC(=N)N)C(=O)N[C@@H](CC(C)C)C(=O)N[C@@H](CCCNC(=N)N)C(=O)c1nccs1 [Compound 5g, Ac-KRLR(SEQ ID NO: 8)-kt] | – | – | 14 nM | – | – | 12 nM | – | – |
| CC(=O)N[C@@H](Cc1c[nH]c2ccccc12)C(=O)N[C@@H](CCCNC(=N)N)C(=O)N[C@@H](CC(C)C)C(=O)N[C@@H](CCCNC(=N)N)C(=O)c1nccs1 [Compound 5h, Ac-WRLR(SEQ ID NO: 9)-kt] | – | – | 31 nM | – | – | 21 nM | – | – |
| CC(=O)N[C@@H](CO)C(=O)N[C@@H](CCCCN)C(=O)N[C@@H](CC(C)C)C(=O)N[C@@H](CCCNC(=N)N)C(=O)c1nccs1 [Compound 6, Ac-SKLR(SEQ ID NO: 10)-kt] | > 20000 nM | only slightly more potent | 48 nM | – | 3060 nM | – | 81 nM | – |
| CC(=O)N[C@@H](CO)C(=O)N[C@@H](CCCCN)C(=O)N[C@@H](Cc1ccccc1)C(=O)N[C@@H](CCCNC(=N)N)C(=O)c1nccs1 [Compound 6c, Ac-SKFR(SEQ ID NO: 13)-kt] | > 2000 nM | – | 34 nM | – | 530 nM | 57 nM | – | HGFA selectivity over both hepsin and matriptase |
| CC(=O)N[C@@H](CO)C(=O)N[C@@H](CCCNC(=N)N)C(=O)N[C@@H](CC(C)C)C(=O)N[C@@H](CCCNC(=N)N)C(=O)c1nccs1 [Compound 6e, Ac-SRLR(SEQ ID NO: 15)-kt] | – | – | 24 nM | – | – | 24 nM | – | HGFA selectivity over both hepsin and matriptase |
| CC(=O)N[C@@H](CO)C(=O)N[C@@H](Cc1c[nH]c2ccccc12)C(=O)N[C@@H](CC(C)C)C(=O)N[C@@H](CCCNC(=N)N)C(=O)c1nccs1 [Compound 6g, Ac-SWLR(SEQ ID NO: 17)-kt] | 3700 nM | – | 175 nM | – | 759 nM | 63 nM | 66 nM | HGFA selectivity over both hepsin and matriptase |
| N=C(N)c1ccc2cc(OC(=O)c3ccc(N=C(N)N)cc3)ccc2c1 [Nafamostat, reference compound] | – | – | – | – | – | 25 nM | – | – |
